Assay results published in BindingDB's records for doi:10.1021/cb600276q (Genentech, 2006).
Where a SMILES comes first, the peptide text is derived from it.

How the values were obtained:
Test in all cases: Fluorescence Polarization Affinity Measurements.
Settings in all cases: pH 7.2; 22 °C
[1] = target: T1, Baculoviral IAP repeat-containing protein 2 [266-354] (Homo sapiens, UniProt Q13490)
T1 construct: 266-354
Experimental: (§1) Samples for fluorescence polarization affinity measurements were prepared by addition of serial dilutions of target protein to each well containing antagonist and polarization probe in the buffer. Samples were read after 30-min incubation. Fluorescence polarization values were plotted as a function of the antagonist concentration, and the IC50 values were obtained by fitting the data to a four-parameter equation using KaleidaGraph software. Ki values for the antagonists were determined from the IC50 values.

[2] = target: T2, Baculoviral IAP repeat-containing protein 3 [252-340] (Homo sapiens, UniProt Q13489)
T2 construct: 252-340
Experimental: as §1

[3] = target: T3, Complex of Baculoviral IAP repeat-containing protein 7 [1-159,S150G] and E3 ubiquitin-protein ligase XIAP [336-348] (Homo sapiens, UniProt Q96CA5, S150G)
T3 construct: 1-159; 336-348
Experimental: as §1

[4] = target: T4, E3 ubiquitin-protein ligase XIAP [241-356] (Homo sapiens, UniProt P98170)
T4 construct: 241-356
Experimental: as §1

## CN[C@@H](C)C(=O)N[C@H]1CCC[C@H]2SC(C)(C)[C@@H](C(=O)Nc3cc(C)nn3-c3ccccc3)N2C1=O [(3R,6S,9aR)-2,2-dimethyl-N-(3-methyl-1-phenyl-1H-pyrazol-5-yl)-6-[(2S)-2-(methylamino)propanamido]-5-oxo-octahydroazepino[2,1-b][1,3]thiazole-3-carboxamide]
[1]
  Ki: 50 nM
[2]
  Ki: 130 nM

## CN[C@@H](C)C(=O)N[C@H]1CCC[C@H]2SC[C@@H](C(=O)Nc3cc(C)nn3-c3ccccc3)N2C1=O [(3R,6S,9aR)-N-(3-methyl-1-phenyl-1H-pyrazol-5-yl)-6-[(2S)-2-(methylamino)propanamido]-5-oxo-octahydroazepino[2,1-b][1,3]thiazole-3-carboxamide]
[1]
  Ki: 110 nM
[2]
  Ki: 490 nM

## CC(C)[C@H](NC(=O)[C@H](C)N)C(=O)N1CCC[C@H]1C(=O)N[C@@H](Cc1c[nH]c2ccccc12)C(=O)O [L-alanyl-L-valyl-L-prolyl-L-tryptophan] (H-AVPW-OH)
[1]
  Ki: 30 nM
[2]
  Ki: 70 nM
[3]
  Ki: 40 nM
[4]
  Ki: 50 nM
